pEC50, pIC50: −log10 of the molar value.
How the values were obtained:
[1] = system: XBP-1 splicing; assay: XBP-1 splicing in vivo in a model of ER stress (tunicamycin-treated SCID mice); parameters: species or system mouse; settings: tunicamycin 1 mg/kg IP, 100, 50 or 25 mg/kg orally, 2 hour exposure, RT-PCR
Procedure: SCID mice were treated with tunicamycin 1 mg/kg IP. Compound no. 12-4 was administered orally two hours later at one of three doses: 100 mg/kg, 50 mg/kg, or 25 mg/kg (2 hour exposure) in 10% hydroxypropyl-beta-cyclodextrin (HPBCD). The total exposure to tunicamycin was 4 hours, and the total exposure to compound 12-4 was 2 hours.
Livers and kidneys were harvested and total RNA was prepared using Trizol. RT-PCR was performed using murine specific XBP1 primers flanking the 26-nt intron and products were separated on 4% agarose gel. The results are shown in FIG. 1B (liver) and FIG. 1C, in which each lane represents an individual mouse (n=4).

[2] = biological target: human IRE-1α (GST-IRE-1α) (Homo sapiens (Human), UniProt O75460); assay: IRE-1α assay (cleavage of mini-XBP-1 mRNA stem-loop substrate); type: biochemical; settings: average IC50 for inhibition of IRE-1α in vitro
Procedure: A fusion protein comprising glutathione S transferase (GST) and human IRE-1α (GST-IRE-1α) obtained from a 500 ml baculovirus-infected insect cell culture can be used to measure IRE-1α activity in vitro. Five μl of a reaction mixture comprising 1× reaction buffer (5× reaction buffer is 100 mM Hepes pH 7.5, 250 mM KOAc, 2.5 mM MgCl2), 3 mM DTT, and 0.4% polyethylene glycol water is added to each well of 384 well plates. Twenty-five nanoliters of a 1 mM test compound solution are added to test wells. […] Negative control wells contain only reaction mixture and test compound. After spinning the plates at 1200 rpm for 30 seconds, 3 μl of an IRE-1α human mini-XBP-1 mRNA stem-loop substrate [NT] ID NO:1), labeled with the fluorescent dye Cy5 at the [NT] end, are added to each well of a control plate. The plates are again spun at 1200 rpm for 30 seconds. […] The plates are covered with lids and incubated for one hour at 30° C. The plates are then transferred to an […] microplate reader. Data is analyzed using data analysis software, and the percent activity of IRE-1α is calculated.

[3] = system: IRE-1α-mediated XBP-1 splicing in human myeloma MM.1s cells; assay: Cellular XBP-1 splicing assay in myeloma cells (RT-PCR); type: cell-based; settings: average EC50, endogenous XBP-1 splicing in myeloma cells, DTT stress
Procedure: After an additional 45 minutes (2 hours total) with compound and DTT, the cells are harvested with TRIZOL® (a mono-phasic solution of phenol and guanidine isothiocyanate), and total RNA is prepared as directed by the manufacturer (Invitrogen). Human XBP-1 is amplified by RT-PCR with the following primers, which flank the 26 base unconventional intron excised by IRE-1α:
RT-PCR of unstressed (U) cells then generates the upper band. When cells are stressed (S) with the endoplasmic reticulum (ER) stressing agent DTT, IRE-1α is activated due to accumulating unfolded protein and the resulting RT-PCR product is 26 base pairs shorter.
Compounds which pass specificity assays are assayed for cellular EC50 using endogenous XBP-1 splicing in myeloma cells. XBP-1 is regulated through the excision of a 26 nucleotide intron from the XBP-1 mRNA by the highly specific endoribonuclease activity of IRE-1α. […] This splicing event is used to measure IRE-1α activity on XBP-1 mRNA in cells and tissues.
Briefly, compounds are incubated in the presence or absence of an ER stress agent (e.g., DTT), and the ratio of XBP-1u (unspliced) to XBP-1s (spliced) is quantified by RT-PCR.

[4] = system: human myeloma RPMI8226 tumor xenografts; assay: RPMI8226 xenograft efficacy model; type: in vivo, mouse; settings: SCID mice bearing RPMI8226 xenografts, 0.75 mg/kg IV twice weekly
Procedure: SCID mice are implanted with tumor cells (human RPMI8226 myeloma cells) via IP, IV or SC routes based on the results from the xenograft model development studies (above). Mice are treated with compound or mock treated (vehicle) for a period of up to 4-5 weeks. Compound administration can be via IV, IP, PO or SC routes. In some cases, tunicamycin is administered via IP injection in order to stimulate stress in the animal. This stress mimics the stress an animal may undergo during times of tumor growth. The tunicaymycin injection mimics tumor growth during times of stress and permits evaluation of biomarkers which indicate the effectiveness of a compound (such as XBP-1 splicing) by RT-PCR, immunohistochemistry, or Western blots.
Mice are monitored for tumor growth, regression and general health. Tumors are collected and characterized by immunohistochemistry and/or FACS analysis. Tumor growth is measured by calipers, ultrasound, or by abdominal lavage. Biomarkers in the blood or tumor can evaluated (primarily XBP-1 splicing).
Tumor cells are cultured and injected IP, IV (tail vein) or SC (flank) in the mouse using a 21G needle in a volume of approx 100 μL. Mice are treated with compounds or vehicle alone as a control by IV, IP, SC or PO routes 5 days per week for up to 4-5 weeks. Blood is collected via retroorbital bleed (100 μA) at 2 time points (different eyes). […]

human IRE-1α (GST-IRE-1α), sequence (O75460 19-977): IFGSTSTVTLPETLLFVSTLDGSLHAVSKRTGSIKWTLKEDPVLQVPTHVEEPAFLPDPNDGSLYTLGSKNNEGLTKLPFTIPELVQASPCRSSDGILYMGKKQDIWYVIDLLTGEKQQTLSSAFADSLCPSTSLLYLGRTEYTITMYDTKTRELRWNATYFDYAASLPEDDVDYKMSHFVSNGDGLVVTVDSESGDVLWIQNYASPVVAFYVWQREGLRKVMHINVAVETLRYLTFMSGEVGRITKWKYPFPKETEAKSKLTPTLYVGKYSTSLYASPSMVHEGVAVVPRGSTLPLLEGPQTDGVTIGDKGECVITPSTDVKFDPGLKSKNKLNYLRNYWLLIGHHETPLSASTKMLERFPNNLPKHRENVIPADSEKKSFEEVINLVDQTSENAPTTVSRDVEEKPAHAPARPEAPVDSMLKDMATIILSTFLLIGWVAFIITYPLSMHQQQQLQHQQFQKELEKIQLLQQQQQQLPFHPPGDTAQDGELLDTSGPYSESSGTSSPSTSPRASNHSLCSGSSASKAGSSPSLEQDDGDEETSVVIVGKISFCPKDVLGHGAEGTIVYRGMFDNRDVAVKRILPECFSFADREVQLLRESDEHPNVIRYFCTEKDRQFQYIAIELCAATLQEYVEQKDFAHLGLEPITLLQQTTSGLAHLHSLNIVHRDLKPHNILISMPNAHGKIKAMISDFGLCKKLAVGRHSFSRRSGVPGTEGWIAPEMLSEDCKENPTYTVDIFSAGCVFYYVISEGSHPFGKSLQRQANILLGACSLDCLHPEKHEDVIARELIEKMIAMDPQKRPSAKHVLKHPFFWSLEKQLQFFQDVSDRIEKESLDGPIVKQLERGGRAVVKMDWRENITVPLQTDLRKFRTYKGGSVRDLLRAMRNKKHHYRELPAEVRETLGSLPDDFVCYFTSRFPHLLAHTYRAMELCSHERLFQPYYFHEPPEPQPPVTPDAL

Structure (SMILES) | pIC50 [2] | pEC50 ([3]; Homo sapiens, MM1.S) | other results
Cc1nc(-c2ccc3c(C=O)c(O)ccc3c2)sc1C(=O)N1CCN(C)CC1 [Compound 12-4] |  |  | inhibition of XBP-1 splicing in kidney ([1]; kidney): dose-dependent inhibition; inhibition of XBP-1 splicing in liver ([1]; liver): dose-dependent inhibition
CN(Cc1ccccc1)C(=O)C1CCN(c2ccc3ccc(O)c(C=O)c3c2)C1 (stereo not shown) [Compound 134] | < 6.00 | < 5.00 | 
CN(C)C1CCN(c2ccc3ccc(O)c(C=O)c3c2)C1 (stereo not shown) [Compound 135] | < 6.00 | < 5.00 | 
O=Cc1c(O)ccc2ccc(N3CCC(N4CCCCC4)C3)cc12 (stereo not shown) [Compound 137] | < 6.00 | < 5.00 | 
CN1CCN(C2CCN(c3ccc4ccc(O)c(C=O)c4c3)C2)CC1 (stereo not shown) [Compound 138] | < 6.00 | < 5.00 | 
O=Cc1c(O)ccc2cc(-c3ccc(C(=O)NCCN4CCOCC4)cc3)ccc12 [Compound 139] | > 7.00 | > 5.00 | 
Cc1nc(-c2ccc3c(C=O)c(O)ccc3c2)sc1C(=O)N1CCCC1 [Compound 140] | > 7.00 | > 5.00 | 
COCCNC(=O)c1sc(-c2ccc3c(C=O)c(O)ccc3c2)nc1C [Compound 141] | > 7.00 | > 5.00 | 
Cc1nc(-c2ccc3c(C=O)c(O)ccc3c2)sc1C(=O)NCCN1CCOCC1 [Compound 142] | > 7.00 | > 5.00 | 
CN1CCC(NC(=O)c2ccc(-c3ccc4c(C=O)c(O)ccc4c3)cc2)CC1 [Compound 143] | < 6.00 | > 5.00 | 
Cc1nc(-c2ccc3c(C=O)c(O)ccc3c2)sc1C(=O)NC1CCNCC1 [Compound 144] | > 7.00 | > 5.00 | 
Cc1nc(-c2ccc3c(C=O)c(O)ccc3c2)sc1C(=O)NC1CCN(C)CC1 [Compound 145] | > 6.00 | > 5.00 | 
CN(Cc1ccccc1)C1CCN(c2ccc3c(C=O)c(O)ccc3c2)C1 (stereo not shown) [Compound 146] | < 6.00 | < 5.00 | 
CN(Cc1ccncc1)C1CCN(c2ccc3c(C=O)c(O)ccc3c2)C1 (stereo not shown) [Compound 147] | < 6.00 | < 5.00 | 
CN(Cc1ccncc1)C(=O)C1CCN(c2ccc3ccc(O)c(C=O)c3c2)C1 (stereo not shown) [Compound 148] | < 6.00 | < 5.00 | 
O=Cc1c(O)ccc2ccc(N3CCC(C(=O)N4CCOCC4)C3)cc12 (stereo not shown) [Compound 149] | < 6.00 | < 5.00 | 
CN1CCN(C(=O)C2CCN(c3ccc4ccc(O)c(C=O)c4c3)C2)CC1 (stereo not shown) [Compound 150] | < 6.00 | < 5.00 | 

Structure (SMILES) | pIC50 [2] | pEC50 ([3]; Homo sapiens, MM1.S) | other results
O=Cc1c(O)ccc2cc(-c3ccc(C(=O)NC4CCNCC4)nc3)ccc12 [Compound 151] | > 6.00 | > 5.00 | 
CN(Cc1ccccc1)C1CCN(c2ccc3ccc(O)c(C=O)c3c2)C1 (stereo not shown) [Compound 152] | < 6.00 | < 5.00 | 
O=Cc1c(O)ccc2cc(N3CCC(NCc4ccccc4)C3)ccc12 (stereo not shown) [Compound 153] | < 6.00 | < 5.00 | 
CC(=O)NC1CCN(c2ccc3c(C=O)c(O)ccc3c2)C1 (stereo not shown) [Compound 154] | > 6.00 | > 5.00 | 
CN(Cc1ccncc1)C1CCN(c2ccc3ccc(O)c(C=O)c3c2)C1 (stereo not shown) [Compound 155] | < 6.00 | < 5.00 | 
CC(=O)NC1CCN(c2ccc3ccc(O)c(C=O)c3c2)C1 (stereo not shown) [Compound 156] | < 6.00 | < 5.00 | 
CC(=O)N(C)C1CCN(c2ccc3ccc(O)c(C=O)c3c2)C1 (stereo not shown) [Compound 157] | < 6.00 | < 5.00 | 
CN(Cc1ccncc1)C(=O)C1CCN(c2ccc3c(C=O)c(O)ccc3c2)C1 (stereo not shown) [Compound 158] | > 6.00 | < 5.00 | 
CC(C)N1CCN(c2ccc3ccc(O)c(C=O)c3c2)CC1 [Compound 159] | < 6.00 | < 5.00 | 
CN1CCN(C(=O)COc2ccc3c(C=O)c(O)ccc3c2)CC1 [Compound 165] | < 6.00 |  | pEC50 [3]: < 5.00
COCCNC(=O)c1ccc(-c2ccc3c(C=O)c(O)ccc3c2)cc1 [Compound 170] | < 6.00 |  | pEC50 [3]: > 5.00
O=Cc1c(O)ccc2cc(-c3ccc(C(=O)NC4CCCNC4)o3)ccc12 (stereo not shown) [Compound 171] | > 7.00 | > 5.00 | 
O=Cc1c(O)ccc2ccc(OS(=O)(=O)C(F)(F)F)cc12 [Compound 177] | > 6.00 | < 5.00 | 
O=Cc1c(O)ccc2cc(OCC(=O)O)ccc12 [Compound 178] | < 6.00 | < 5.00 | 
N#Cc1ccc(Oc2ccc3c(C=O)c(O)ccc3c2)cc1 [Compound 181] | > 6.00 | > 5.00 | 
O=Cc1c(O)ccc2cc(Oc3ccc(C(=O)O)cc3)ccc12 [Compound 182] | > 7.00 | > 5.00 | 
CC(C)C[C@H](NC(=O)[C@H](Cc1ccccc1)NC(=O)c1cnccn1)B(O)O [bortezomib] |  |  | tumor growth [4]: suppression of tumor growth

Reference: patent US9493435B2, “IRE-1α inhibitors” (MannKing Corporation, priority 2009, dated 2016)
